“And” between values parts separate entries of the source, which are not always exact repeats. Equal values may be shown once. Where only a bound is given, the exact number is not on record here.

The target of one test is T1, OASS-A (Salmonella typhimurium, UniProt P0A1E3).
T1 construct: OASS-A and OASS-B were expressed and purified as previously described; made in house
Put plainly: Ligand binding affinity to OASS-A by PLP fluorescence titration. As to conditions: for Kd: PLP fluorescence at 500 nm, excitation 412 nm, 100 mM Hepes pH 7.0, 20 °C. As for the experimental part:
(§1) OASS-A and OASS-B were expressed and purified as previously described. The binding affinity of selected ligands to OASS-A and OASS-B was determined by monitoring the increase in fluorescence emission of the bound PLP at 500 nm following excitation at 412 nm, [55]. Emission spectra were collected at increasing ligand concentrations in the presence of 0.05–1 µM OASS, 100 mM Hepes buffer, pH 7.0 at 20°C. DMSO and/or potassium hydroxide were added when needed to solubilize the compounds and pH was checked to be between 7 and 8.5. Spectra were corrected for the buffer contribution. Fluorescence measurements were carried out using a FluoroMax-3 fluorometer (HORIBA-Jobin Yvon), equipped with a thermostated cell-holder.
(§2) The dependence of fluorescence intensity at 500 nm on ligand concentration was fitted to a binding isotherm: [drawing 1] (1) where I is the fluorescence intensity at 500 nm in the presence of the ligand, I0 is the fluorescence intensity in the absence of ligand, Imax is the maximum fluorescence change at saturating ligand concentrations, [L] is the ligand concentration, and Kd is the dissociation constant of the OASS-ligand complex. This measurement is a direct determination of ligand dissociation constant in the absence of substrate, thus it coincides with Ki, independently from the inhibition mechanism.
(§3) A total of 12 compounds for OASS-A (Table 1) and 11 compounds for OASS-B (Table 2) predicted to be potential ligands were experimentally tested by determining their dissociation constants exploiting PLP fluorescence changes as a function of ligand concentration. The observed increases in coenzyme fluorescence and the concomitant blue shifts of the peaks upon ligand binding result from the closure of the active site – thus altering the coenzyme microenvironment, [55]. It is important to point out that the evaluated dissociation constants for these compounds correspond to their inhibition constants, Ki, because they occupy the enzyme active site, [19], and, therefore, are purely competitive inhibitors.

Another test addresses T2, OASS-B (Salmonella typhimurium, UniProt P29848).
T2 construct: OASS-A and OASS-B were expressed and purified as previously described; made in house
Kind of test: Ligand binding affinity to OASS-B by PLP fluorescence titration. As to conditions: PLP fluorescence at 500 nm, excitation 412 nm, 100 mM Hepes pH 7.0, 20 °C. The method, then:
as §1, §2, §3

The next test deals with OASS. Put plainly: Reaction or time-dependent inactivation of OASS by ligand. Format: biochemical, Salmonella typhimurium. As to conditions: under the paper's experimental conditions.
Test [1] relates to S. typhimurium knock-out for cysteine synthase. Further details: method as in PMID 18957594. As to conditions: cysteine synthase knock-out vs wild type; cited from earlier work.

T1 sequence (P0A1E3 whole entry): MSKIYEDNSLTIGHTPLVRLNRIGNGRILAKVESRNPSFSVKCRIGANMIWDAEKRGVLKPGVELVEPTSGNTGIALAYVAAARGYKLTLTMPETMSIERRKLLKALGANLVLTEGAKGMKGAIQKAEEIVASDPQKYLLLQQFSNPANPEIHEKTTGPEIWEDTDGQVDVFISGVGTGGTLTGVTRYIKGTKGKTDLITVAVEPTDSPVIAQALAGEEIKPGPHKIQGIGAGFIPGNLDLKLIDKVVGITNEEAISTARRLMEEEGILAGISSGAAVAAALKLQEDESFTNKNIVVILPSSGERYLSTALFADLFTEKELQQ
T2 sequence (P29848 whole entry): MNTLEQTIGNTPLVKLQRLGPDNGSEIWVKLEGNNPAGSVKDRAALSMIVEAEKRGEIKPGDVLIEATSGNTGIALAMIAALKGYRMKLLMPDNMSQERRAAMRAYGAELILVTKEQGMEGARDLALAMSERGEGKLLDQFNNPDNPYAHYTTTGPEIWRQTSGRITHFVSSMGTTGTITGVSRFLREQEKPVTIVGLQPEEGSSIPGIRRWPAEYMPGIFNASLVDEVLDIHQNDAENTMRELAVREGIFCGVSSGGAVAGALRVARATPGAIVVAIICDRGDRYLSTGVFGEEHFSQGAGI

For the compound `O=C(O)CNC(=O)CNC(=O)C1C2C=CC(C2)C1C(=O)O` (centres unmarked) [Compound 1], the Kd is 3.8 µM and < 100 µM and 3.7 µM on OASS-A; 50 ± 5 µM on OASS-B.
On to `O=C(O)C1CC=CCC1C(=O)Nc1nncs1` (centres unmarked) [Compound 2], for which the dissociation constant Kd on OASS-A is 82 ± 18 µM; on OASS-B, more than 1500 µM.
The matching figures for `CC(C)C(NS(=O)(=O)c1cccs1)C(=O)O` (centres unmarked) [Compound 3]: 95 ± 10 µM and more than 1500 µM.
As to `O=C(O)CC(C(=O)O)c1ccccc1` (centres unmarked) [Compound 4], the Kd at OASS-A was 103 ± 9 µM.
The same measure, in the same setting: in the case of `O=C(O)C1CCCCN1S(=O)(=O)c1cccc([N+](=O)[O-])c1` (centres unmarked) [Compound 5] it was 218 ± 61 µM; in that of `O=C(O)C1CC=CCC1C(=O)NCc1ccncc1` (centres unmarked) [Compound 6], 283 ± 19 µM; in that of `CC(C)CC(NC(=O)c1ccco1)C(=O)O` (centres unmarked) [Compound 7], 558 ± 131 µM.
Same read-out and setting: with `CC1=C(C(=O)O)N2C(=O)C(NC(=O)c3nn(C)cc3[N+](=O)[O-])C2SC1` (centres unmarked) [Compound 8] the figure was 732 ± 72 µM.
The same measure, in the same setting: with `O=C(NC(Cc1ccccc1)C(=O)O)c1ccco1` (centres unmarked) [Compound 9] the figure was 1300 ± 400 µM; with `Cc1nnc(NC(=O)c2c(C(=O)O)cccc2[N+](=O)[O-])s1` [Compound 10], more than 1500 µM; with `O=C(O)c1ccoc1CN1CCOCC1` [Compound 11], more than 1500 µM.
At OASS-A, `CC(C)CC(NC=C1C(=O)OC(C)(C)OC1=O)C(=O)O` (centres unmarked) [Compound 12] yielded a Kd of more than 1500 µM. Further, the “binding to OASS-A (in words)” value at OASS-A (fluorimetric titration) is “no binding was observed”.
Regarding `O=C(O)/C=C(/Cl)CC(=O)O` [Compound 13], the dissociation constant (Kd) is 29 ± 3 µM on OASS-A and 33 ± 2 µM at OASS-B. In addition, the “reaction or time-dependent inactivation of OASS” value with OASS is “no reaction or time-dependent inactivation of OASS was observed”.
`Cn1nnnc1Sc1ncccc1C(=O)O` [Compound 14]: the Kd was more than 1500 µM at OASS-A and 810 ± 110 µM at OASS-B.
Compound `O=C(O)CSc1nsc(SCC(=O)O)n1` [Compound 16] yielded a Kd on OASS-B of more than 1500 µM.
The same measure, in the same setting: with `CC1(C)OC(=O)C(=CNC(CCC(=O)O)C(=O)O)C(=O)O1` (centres unmarked) [Compound 17] the figure was more than 1500 µM; with `CC1(C(=O)O)Cc2oncc2CC1C(=O)O` (centres unmarked) [Compound 18], more than 1500 µM; with `O=C(O)CCN(CCC(=O)O)S(=O)(=O)c1ccccc1` [Compound 19], more than 1500 µM.
On the same count and under the same terms, with `CCC1([N+](=O)[O-])CN(CC(=O)O)CN(CC(=O)O)C1` [Compound 21] the figure was more than 1500 µM.
The same measure, in the same setting: in the case of `C[S+]([O-])CCC(NS(=O)(=O)c1ccccc1)C(=O)O` (centres unmarked) [Compound 22] it was more than 1500 µM; in that of `CCn1ncc([N+](=O)[O-])c1C(=O)O` [Compound 23], more than 1500 µM.
Regarding `O=C(O)c1cn(C2CC2)c2cc(N3CCNCC3)c(F)cc2c1=O` [ciprofloxacin], the “MIC lower than wild type bacterium” value in test [1] is listed as 500 fold.

Values taken from PMC3805590, “Isozyme-Specific Ligands for O-acetylserine sulfhydrylase, a Novel Antibiotic Target” (PLoS ONE, 2013).
